# Source: US20210322582A1, “RADIOACTIVE IMIDAZOTHIADIAZOLE DERIVATIVE COMPOUND” (Nihon Medi-Physics Co., Ltd., priority 2018, published 2021)
# Tests used:
# Format in all cases: in vivo
# [1] = test system: MDA-MB-231 tumor; assay: Biodistribution of [^111In]ITDA2 in MDA-MB-231 tumor cancer-bearing mouse; settings: MDA-MB-231 tumor mouse, 24 hours
# Procedure: HT-29 cells (5×10^6 cells/mouse) and MDA-MB-231 cells (1×10^7 cells/mouse) were subcutaneously inoculated into the left shoulders of 5-week old male BALB/c nude mice, respectively, and the mice were used when the tumor diameter reached 6 to 10 mm. A saline solution (100 μL) in which [^111In]ITDA2 (40 kBq) had been dissolved was administered to each of the HT-29 tumor or MDA-MB-231 tumor cancer-bearing mice (n=5) via the tail vein. The HT-29 tumor cancer-bearing mice were slaughtered after the lapse of 1, 4, 8, and 24 hours from the administration, the MDA-MB-231 tumor cancer-bearing mouse was slaughtered after the lapse of 24 hours from the administration, and the blood, spleen, pancreas, stomach, intestines, kidney, liver, heart, lungs, brain, tumor, and muscle were recovered from each of the mice. The weight of each organ was measured, and the amount of radioactivity in each organ was measured by using a gamma counter. The accumulation of radioactivity in each organ except for stomach was expressed by % injected dose/g organ obtained by dividing the ratio of the amount of radioactivity of each organ to the administered amount of radioactivity by the organ weight. The stomach was expressed by % injected dose.
# [2] = test system: HT-29 tumor; assay: SPECT/CT imaging using [^111In]ITDA1; settings: HT-29 cancer-bearing mouse, 24 hours from administration
# Procedure: (§1) HT-29 cells (5×10^6 cells/mouse) and MDA-MB-231 cells (5×10^6 cells/mouse) were subcutaneously inoculated into the left shoulders of 5-week old male BALB/c nude mice, respectively. A saline solution (150 μL) in which [^111In]ITDA1 (23.8 to 26.2 MBq) had been dissolved was administered to each of the cancer-bearing mice via the tail vein. Each of the mice was subjected to SPECT/CT imaging after the lapse of 1, 4, 8, and 24 hours from the administration. U-SPECT-II/CT (single-pinhole collimator 0.6 or 1.0 mm, resolution: 0.45 mm) manufactured by Milab was used as the SPECT/CT device, and data were collected for 60 minutes in 1, 4, 8, and 24 hours from the administration.
# (§2) The collected data were reconstructed by a three-dimensional ordered-subset expectation maximization (3D-OSEM) method. The results of HT-29 cancer-bearing mouse are shown in FIG. 6A, and the results of MDA-MB-231 cancer-bearing mouse are shown in FIG. 6B.
# [3] = test system: MDA-MB-231 tumor; assay: SPECT/CT imaging using [^111In]ITDA1; settings: MDA-MB-231 cancer-bearing mouse, 24 hours from administration
# Procedure: as §1, §2
# [4] = test system: MDA-MB-231-transplanted tumor; assay: Biodistribution of [^111In]ITDA3 in MDA-MB-231 cancer-bearing mouse; settings: MDA-MB-231 mouse, 24 hours after administration
# Procedure: HT-29 cells and MDA-MB-231 cells (5×10^6 cells/mouse) were subcutaneously inoculated into the left shoulders of 5-week old male BALB/c nude mice, respectively. A saline solution (100 μL) in which[^111In]ITDA3 (40 kBq) had been dissolved was administered to each of the cancer-bearing mice (n=5) via the tail vein. The HT-29 cancer-bearing mice were slaughtered after the lapse of 1, 4, and 24 hours from the administration, the MDA-MB-231 cancer-bearing mouse was slaughtered after the lapse of 24 hours from the administration, and the blood, spleen, pancreas, stomach, intestines, kidney, liver, heart, lungs, brain, HT-29 or MDA-MB-231-transplanted tumor, and muscle were recovered from each of the mice. The weight of each organ was measured, and the amount of radioactivity in each organ was measured by using a gamma counter. The accumulation of radioactivity in each organ except for stomach was expressed by % ID (injected dose)/g obtained by dividing the ratio of the amount of radioactivity of each organ to the administered amount of radioactivity by the organ weight. The stomach was expressed by % ID (injected dose).
structure (smiles),measurement,setting,value
"NS(=O)(=O)c1nn2cc(-c3ccc(NC(=O)CN4CCN(CC(=O)O)CCN(CC(=O)Nc5ccc(-c6cn7nc(S(N)(=O)=O)sc7n6)cc5)CCN(CC(=O)O)CC4)cc3)nc2s1.[111In+3] [[^111In]ITDA2, [^111In]indium(III)2,2′-(4,10-bis(2-oxo-2-((4-(2-sulfamoylimidazo[2,1-b][1,3,4]thiadiazol-6-yl)phenyl)amino)ethyl)-1,4,7,10-tetraazacyclododecan-1,7-diyl) diacetic acid]",Biokinetics: Blood,[1],0.29 ± 0.04 % injected dose/g organ
same,Biokinetics: Brain,[1],0.34 ± 0.07 % injected dose/g organ
same,Biokinetics: Heart,[1],1.13 ± 0.19 % injected dose/g organ
same,Biokinetics: Intestines,[1],9.15 ± 1.04 % injected dose/g organ
same,Biokinetics: Kidney,[1],59.8 ± 4.04 % injected dose/g organ
same,Biokinetics: Liver,[1],2.77 ± 0.45 % injected dose/g organ
same,Biokinetics: Lungs,[1],1.70 ± 0.57 % injected dose/g organ
same,Biokinetics: Muscle,[1],0.64 ± 0.06 % injected dose/g organ
same,Biokinetics: Pancreas,[1],3.37 ± 0.28 % injected dose/g organ
same,Biokinetics: Spleen,[1],0.27 ± 0.07 % injected dose/g organ
same,Biokinetics: Stomach,[1],8.43 ± 1.08 % injected dose
same,Biokinetics: Tumor,[1],1.56 ± 0.17 % injected dose/g organ
same,Tumor/blood,[1],5.51 ± 0.78
same,Tumor/muscle,[1],2.46 ± 0.39
"NS(=O)(=O)c1nn2cc(-c3ccc(NC(=O)CN4CCN(CC(=O)O)CCN(CC(=O)O)CCN(CC(=O)O)CC4)cc3)nc2s1.[111In+3] [[^111In]ITDA1, [^111In]indium(III)2,2′,2″-(10-(2-oxo-2-((4-(2-sulfamoylimidazo[2,1-b][1,3,4]thiadiazol-6-yl)phenyl)amino)ethyl)-1,4,7,10-tetraazacyclododecan-1,4,7-triyl) triacetic acid]",Accumulation of radioactivity in the transplanted tumor (SPECT/CT),[2],highly observed
same,Accumulation in the transplanted tumor (SPECT/CT),[3],not observed
NS(=O)(=O)c1nn2cc(-c3ccc(NC(=O)CCC(C(=O)O)N4CCN(CC(=O)[O-])CCN(CC(=O)[O-])CCN(CC(=O)[O-])CC4)cc3)nc2s1.[111In+3] (stereo not drawn) [[^111In]ITDA3],Accumulation of radioactivity: Blood,[4],0.06 ± 0.02 % ID/g
same,Accumulation of radioactivity: Brain,[4],0.24 ± 0.04 % ID/g
same,Accumulation of radioactivity: Heart,[4],1.24 ± 0.19 % ID/g
same,Accumulation of radioactivity: Intestines,[4],6.66 ± 0.86 % ID/g
same,Accumulation of radioactivity: Kidney,[4],49.65 ± 5.04 % ID/g
same,Accumulation of radioactivity: Liver,[4],2.96 ± 0.64 % ID/g
same,Accumulation of radioactivity: Lungs,[4],0.93 ± 0.18 % ID/g
same,Accumulation of radioactivity: MDA-MB-231 tumor,[4],0.72 ± 0.27 % ID/g
same,Accumulation of radioactivity: Muscle,[4],0.99 ± 0.26 % ID/g
same,Accumulation of radioactivity: Pancreas,[4],2.00 ± 0.54 % ID/g
same,Accumulation of radioactivity: Spleen,[4],0.12 ± 0.02 % ID/g
same,Accumulation of radioactivity: Stomach,[4],5.49 ± 0.55 % ID
same,Tumor/blood,[4],11.97 ± 6.08
same,Tumor/muscle,[4],0.77 ± 0.32
